# Test results from US12076307B2, “Compositions for prevention or treatment of acute radiation syndrome and other radiation exposure” (priority 2017, dated 2024).
# Columns and labels:
# [1] = In vitro metabolite screening, rat liver microsomes; assay type: in vitro ADME; conditions: N=2
# Protocol: [^14C]EC-18 or the positive control (7-ethoxycoumarin; 7-EC) reacted with microsomes prepared from hepatocytes of rats, dogs, monkeys, and humans, with or without cofactors, for 60 and 120 min. Then, the residual EC-18 concentration over time was measured by LC-RID ([^14C]EC-18) or LC-MS/MS (7-EC) (FIG. 63 and FIG. 64).
# The LC-RID chromatographic profiles of radioactive metabolites produced in the 2-hr incubation reaction mixtures of the same test systems A, B, and C used to assess the metabolic and non-metabolic elimination rates of EC-18 were compared to the LC-UV chromatographic profiles of the synthetic reference material. […] The relative radioactivity of EC-18 accounted for 42-67% of total radioactivity. The peaks designated as M2, M3, and M5 were also determined in all species, and their relative radioactivity accounted for 12-34% of total radioactivity. The peaks of M4 and M6 were determined in monkeys and humans. M1 was abundantly detected in all species, but it was assumed to be a peak of early elution. The LC-UV chromatograms of reaction mixtures in each test system (FIGS. 65A-65C) and the relative radioactivity of the screened metabolites are shown in Table 25.
# [2] = Plasma concentrations of EC-18 in non-irradiated and irradiated mice; assay type: in vivo; conditions: male, Balb/c, mouse, po
# Protocol: A day after 6.11 Gy gamma-radiation, both irradiated and non-irradiated male Balb/c mice (n=5) were orally administered daily with 50, 100, 250 or 500 mg/kg of EC-18 up to 14 days and analyzed for PK parameters on days 7 and 14 post-radiation (Table 21).
# [3] = Whole blood and lymphatic radioactivity in rats after single oral [14C]EC-18 100 mg/kg; assay type: in vivo, rat
# [4] = system: mice, 5-FU + X-radiation 20 Gy on heads and necks; test: CRIOM (chemoradiation-induced oral mucositis) murine model; assay type: in vivo, mouse
# Description: Radiation-Induced Coagulopathy is worsened in more severe syndromes including mucositis in the oral cavity and GI. As described above, exposure to radiation stimulates DAMP release and DAMP recognized by PRR results in an inflammatory response that causes apoptosis, mucosal atrophy, and ulceration. Specifically, TLR-4 has been identified as a major PRR, which plays a critical role in the pathogenesis of mucosal injury (Vasconcelos et al., 2016). To investigate the mitigating effect of EC-18 against CRIOM, different doses of EC-18 were administered to mice daily. CRIOM mouse model was established using concurrent treatments with 5-FU (100 mg/kg, i.p.) and X-radiation (20 Gy) on heads and necks of mice. PBS or EC-18 (100 and 250 mg/kg, p.o.) was administered daily (n=5 for each group). The body weights of mice were observed, and the mice were sacrificed on day 9.
# CYP1A2 = molecular target: T1, CYP1A2 (Homo sapiens, UniProt P05177); test: in vitro; assay type: in vitro ADME; conditions: human, microsomes
# T1 construct: incubated with human liver microsomes; from tissue; host or cells: human liver microsomes
# hERG channel = hERG channel (Homo sapiens, UniProt Q12809); test: In vitro hERG channel inhibition; conditions: for hERG channel current suppression rate (compensated suppression rate): HEK-293 cells
# OCT2 = molecular target: T2, OCT2 (Homo sapiens, UniProt O15244); test: Drug transporter inhibition, OCT2; assay type: in vitro ADME; conditions: 100 nM [3H] methyl-4-phenylpyridinium; transfected HEK-293 cells
# T2 construct: expressed in transfected cells; host or cells: HEK-293
# Protocol: This study examined the potential of EC-18 to interact with the transporter proteins that have been known to be involved in the absorption of commercially available drugs. EC-18 was pre-incubated with HEK-293 cells and LLC-PK1 cells that were transfected with the genes of most drug transporters as follows: OATP1B1, OATP1B3, OAT1, OAT3 and OCT2, and BCRP and P-gp, respectively.
# [5] = In vitro plasma stability, rat plasma; assay type: in vitro ADME; conditions: Rats; 1 μM; 37° C.; n=3
# Protocol: To assess the stability of EC-18 in plasma, the test material, or the standard reference material (test concentration 1 μM) was mixed with rat and human plasma and allowed to react for 1 hr at 37° C. Then, the residual EC-18 concentration was measured by LC-MS/MS. As standard reference materials, albendazole (a drug with high plasma stability) and vinpocetine (a drug with low plasma stability) were tested in parallel. When allowed to react with rat and human plasma for 1 hr, the residual EC-18 concentration in both rat and human plasma was >99% of the initial dose.
# [6] = 50 mg/kg, day 7, 50 mg/kg oral daily, Irradiated 6.11 Gy
# [7] = 50 mg/kg, day 7, 50 mg/kg oral daily, Non-irradiated
# [8] = 50 mg/kg, day 14, 50 mg/kg oral daily, Irradiated 6.11 Gy
# [9] = 50 mg/kg, day 14, 50 mg/kg oral daily, Non-irradiated
# [10] = 100 mg/kg, day 7, 100 mg/kg oral daily, Irradiated 6.11 Gy
# [11] = 100 mg/kg, day 7, 100 mg/kg oral daily, Non-irradiated
# [12] = 100 mg/kg, day 14, 100 mg/kg oral daily, Irradiated 6.11 Gy
# [13] = 100 mg/kg, day 14, 100 mg/kg oral daily, Non-irradiated
# [14] = 250 mg/kg, day 7, 250 mg/kg oral daily, Irradiated 6.11 Gy
# [15] = 250 mg/kg, day 7, 250 mg/kg oral daily, Non-irradiated
# [16] = 250 mg/kg, day 14, 250 mg/kg oral daily, Irradiated 6.11 Gy
# [17] = 250 mg/kg, day 14, 250 mg/kg oral daily, Non-irradiated
# [18] = 500 mg/kg, day 7, 500 mg/kg oral daily, Irradiated 6.11 Gy
# [19] = 500 mg/kg, day 7, 500 mg/kg oral daily, Non-irradiated
# [20] = 500 mg/kg, day 14, 500 mg/kg oral daily, Irradiated 6.11 Gy
# [21] = 500 mg/kg, day 14, 500 mg/kg oral daily, Non-irradiated
# Chain of hERG channel (Q12809 whole entry): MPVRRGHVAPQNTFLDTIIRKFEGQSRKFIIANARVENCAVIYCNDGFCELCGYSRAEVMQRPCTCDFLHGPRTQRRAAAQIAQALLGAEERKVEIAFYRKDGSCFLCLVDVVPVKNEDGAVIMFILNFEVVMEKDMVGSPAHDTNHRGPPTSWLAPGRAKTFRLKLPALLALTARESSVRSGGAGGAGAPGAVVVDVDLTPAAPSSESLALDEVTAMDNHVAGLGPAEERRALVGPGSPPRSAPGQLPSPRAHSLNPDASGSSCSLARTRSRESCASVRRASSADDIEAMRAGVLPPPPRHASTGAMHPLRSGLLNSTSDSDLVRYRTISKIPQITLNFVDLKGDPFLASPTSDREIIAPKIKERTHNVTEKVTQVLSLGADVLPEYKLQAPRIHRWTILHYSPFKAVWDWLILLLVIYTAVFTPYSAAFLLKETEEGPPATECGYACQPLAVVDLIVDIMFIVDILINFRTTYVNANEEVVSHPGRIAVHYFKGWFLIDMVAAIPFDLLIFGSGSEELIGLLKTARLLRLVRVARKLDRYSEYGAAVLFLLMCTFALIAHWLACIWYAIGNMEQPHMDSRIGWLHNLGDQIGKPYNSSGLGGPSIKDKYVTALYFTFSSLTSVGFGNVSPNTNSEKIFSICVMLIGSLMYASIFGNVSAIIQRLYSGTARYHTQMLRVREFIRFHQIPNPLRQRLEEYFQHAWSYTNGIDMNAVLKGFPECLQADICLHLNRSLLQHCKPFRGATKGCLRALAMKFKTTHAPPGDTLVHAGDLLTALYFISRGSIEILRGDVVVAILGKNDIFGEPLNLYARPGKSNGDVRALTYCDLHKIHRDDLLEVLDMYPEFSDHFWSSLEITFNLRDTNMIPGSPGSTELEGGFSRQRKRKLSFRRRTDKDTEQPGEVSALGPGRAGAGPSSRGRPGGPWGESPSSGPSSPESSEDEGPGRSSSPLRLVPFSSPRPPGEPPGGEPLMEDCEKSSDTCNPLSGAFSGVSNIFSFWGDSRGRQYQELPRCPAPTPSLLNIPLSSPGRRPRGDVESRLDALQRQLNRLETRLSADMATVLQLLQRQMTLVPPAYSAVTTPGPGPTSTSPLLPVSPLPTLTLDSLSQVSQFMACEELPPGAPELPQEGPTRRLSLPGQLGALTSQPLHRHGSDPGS
# T2 sequence (O15244 whole entry): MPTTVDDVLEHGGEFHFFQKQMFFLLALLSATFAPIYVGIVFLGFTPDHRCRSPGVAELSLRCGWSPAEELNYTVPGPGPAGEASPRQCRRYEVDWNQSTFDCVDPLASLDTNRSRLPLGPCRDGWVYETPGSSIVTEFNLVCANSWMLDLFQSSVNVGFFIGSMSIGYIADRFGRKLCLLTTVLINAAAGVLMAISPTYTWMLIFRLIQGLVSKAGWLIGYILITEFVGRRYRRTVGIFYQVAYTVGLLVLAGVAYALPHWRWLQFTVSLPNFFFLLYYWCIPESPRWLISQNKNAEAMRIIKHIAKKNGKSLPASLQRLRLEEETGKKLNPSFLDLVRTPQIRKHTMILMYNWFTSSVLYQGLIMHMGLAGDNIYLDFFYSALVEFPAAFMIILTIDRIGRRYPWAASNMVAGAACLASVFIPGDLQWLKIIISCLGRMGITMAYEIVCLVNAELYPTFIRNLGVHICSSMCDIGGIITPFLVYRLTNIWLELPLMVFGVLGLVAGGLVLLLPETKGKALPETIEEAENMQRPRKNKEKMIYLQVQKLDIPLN
# T1 sequence (P05177 whole entry): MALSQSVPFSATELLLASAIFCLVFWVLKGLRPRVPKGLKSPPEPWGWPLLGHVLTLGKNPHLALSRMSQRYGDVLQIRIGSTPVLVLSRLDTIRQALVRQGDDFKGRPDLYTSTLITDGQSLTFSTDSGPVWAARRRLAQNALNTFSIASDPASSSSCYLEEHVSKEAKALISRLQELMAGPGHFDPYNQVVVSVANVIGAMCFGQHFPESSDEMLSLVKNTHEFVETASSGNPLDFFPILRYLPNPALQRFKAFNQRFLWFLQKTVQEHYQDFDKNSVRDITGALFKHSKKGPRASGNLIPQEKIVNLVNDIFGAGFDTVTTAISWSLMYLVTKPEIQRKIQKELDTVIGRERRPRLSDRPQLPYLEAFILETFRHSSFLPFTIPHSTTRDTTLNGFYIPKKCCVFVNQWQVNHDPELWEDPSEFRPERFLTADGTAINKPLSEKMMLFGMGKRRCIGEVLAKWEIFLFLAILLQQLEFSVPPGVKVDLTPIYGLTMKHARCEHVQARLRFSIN
smiles,measurement,setting,value
"CCCCC/C=C\C/C=C\CCCCCCCC(=O)OC(COC(C)=O)COC(=O)CCCCCCCCCCCCCCC (stereo not drawn) [EC-18, 1-palmitoyl-2-linoleoyl-3-acetylglycerol]",Mean Peak Area in LC-RID,"[1]; A (NADPH added), [14C]EC-18 2 hrs",61.8%
same,Mean Peak Area in LC-RID,"[1]; B (NADPH, PAPS, UDPGA added), 2 hrs",51.9%
same,Mean Peak Area in LC-RID,"[1]; C (no cofactor added), 2 hrs",58.8%
same,AUC(0-t),[2]; [6],39.5 ± 14.8 ng·h/mL
same,Cmax,[2]; [6],7.8 ± 3.4 ng/mL
same,Tmax,[2]; [6],0.4 ± 0.3 h
same,AUC(0-t),[2]; [7],21.6 ± 11.7 ng·h/mL
same,Cmax,[2]; [7],2.7 ± 1.4 ng/mL
same,Tmax,[2]; [7],2.8 ± 2.4 h
same,AUC(0-t),[2]; [8],8.6 ± 3.7 ng·h/mL
same,Cmax,[2]; [8],1.9 ± 0.6 ng/mL
same,Tmax,[2]; [8],3.1 ± 4.5 h
same,AUC(0-t),[2]; [9],38.5 ± 10.3 ng·h/mL
same,Cmax,[2]; [9],4.1 ± 1.4 ng/mL
same,Tmax,[2]; [9],7.8 ± 8.4 h
same,AUC(0-t),[2]; [10],41.3 ± 12.1 ng·h/mL
same,Cmax,[2]; [10],9.8 ± 2.9 ng/mL
same,Tmax,[2]; [10],0.7 ± 0.2 h
same,AUC(0-t),[2]; [11],25.3 ± 7.1 ng·h/mL
same,Cmax,[2]; [11],9.7 ± 4.7 ng/mL
same,Tmax,[2]; [11],5.2 ± 8.6 h
same,AUC(0-t),[2]; [12],80.8 ± 124 ng·h/mL
same,Cmax,[2]; [12],17.2 ± 23.3 ng/mL
same,Tmax,[2]; [12],1.8 ± 2.1 h
same,AUC(0-t),[2]; [13],51.3 ± 22.6 ng·h/mL
same,Cmax,[2]; [13],12.8 ± 9.9 ng/mL
same,Tmax,[2]; [13],7.6 ± 8.5 h
same,AUC(0-t),[2]; [14],73.9 ± 27.1 ng·h/mL
same,Cmax,[2]; [14],31.4 ± 14.9 ng/mL
same,Tmax,[2]; [14],0.6 ± 0.2 h
same,AUC(0-t),[2]; [15],40.7 ± 23.4 ng·h/mL
same,Cmax,[2]; [15],16.4 ± 11.2 ng/mL
same,Tmax,[2]; [15],0.6 ± 0.2 h
same,AUC(0-t),[2]; [16],16.2 ± 7.8 ng·h/mL
same,Cmax,[2]; [16],17.9 ± 17.5 ng/mL
same,Tmax,[2]; [16],0.6 ± 0.2 h
same,AUC(0-t),[2]; [17],76.6 ± 9.8 ng·h/mL
same,Cmax,[2]; [17],19.4 ± 12.3 ng/mL
same,Tmax,[2]; [17],2.8 ± 4.2 h
same,AUC(0-t),[2]; [18],123 ± 17.8 ng·h/mL
same,Cmax,[2]; [18],60.7 ± 14.6 ng/mL
same,Tmax,[2]; [18],0.7 ± 0.2 h
same,AUC(0-t),[2]; [19],57.1 ± 39.7 ng·h/mL
same,Cmax,[2]; [19],14.2 ± 3 ng/mL
same,Tmax,[2]; [19],5.2 ± 8.6 h
same,AUC(0-t),[2]; [20],67.3 ± 34.1 ng·h/mL
same,Cmax,[2]; [20],61 ± 42.1 ng/mL
same,Tmax,[2]; [20],0.6 ± 0.2 h
same,AUC(0-t),[2]; [21],75.9 ± 16 ng·h/mL
same,Cmax,[2]; [21],32.1 ± 8 ng/mL
same,Tmax,[2]; [21],0.5 h
same,Cmax of radioactivity at 24 hrs (so in the source),[3]; lymphatic fluid,48%
same,Cmax of radioactivity at 24 hrs (so in the source),[3]; whole blood,34%
same,thickness of the oral epithelium,[4]; ChemoRT + EC-18,protective effect
same,"DAMPs (HMGB1, HSP90) in serum",[4]; ChemoRT + EC-18 250 mg/kg,subsided levels of DAMPs
same,MIP-2 and IL-6 in serum,[4]; ChemoRT + EC-18 250 mg/kg,substantially less systemic inflammation
same,expression level of CXCL2 and IL-6 mRNA in tongues,[4]; ChemoRT + EC-18 250 mg/kg,downregulated
same,"necroptotic signaling axis (RIPK1, RIPK3, MLKL phosphorylation) in tongues",[4]; ChemoRT + EC-18 250 mg/kg,significantly modulated
same,neutrophils recruited at oral epithelium (IHC),[4]; ChemoRT + EC-18 250 mg/kg,did not
same,OM score and rates of ulceration,[4]; ChemoRT + EC-18 100 and 250 mg/kg,statistically improvement of OM score and lower rates of ulceration dose-dependently
same,body weight,[4]; ChemoRT + EC-18 100 and 250 mg/kg p.o. daily,did not exhibit a significant weight loss
same,IC50,CYP1A2,24.4 mM
same,hERG channel current suppression rate (compensated suppression rate),hERG channel; 125 μM,1.39%
same,hERG channel current suppression rate (compensated suppression rate),hERG channel; 250 μM,2.97%
same,hERG channel current suppression rate (compensated suppression rate),hERG channel; 500 μM,2.54%
same,hERG channel current suppression rate (compensated suppression rate),hERG channel; 1000 μM,2.90%
same,hERG channel current inhibition,hERG channel; concentrations up to 1000 μM,did not inhibit the hERG channel current
same,IC50,OCT2,> 32 µM
same,Residual Concentration Relative to the Initial Dose After Reaction for 1 hr in Plasma,[5],>99%
